Reference: patent US20240342190A1, “METHODS FOR REDUCING ISCHEMIA-REPERFUSION INJURIES” (BioMimetix JV, LLC, priority 2023, published 2024)
“Also recorded” adds a separate entry of the source.

Tests used:
blood brain barrier = test: Experiment 7: blood brain barrier permeability after intracarotid infusion (Evans blue content); conditions: non-stroke rats, vs vehicle
Description: 30 μg/kg of BMX-001 (n=4), or same amount of saline (n=4) or mannitol (n=4) was given to normal male Wistar rats through the carotid artery. The rats received 100 μl 2% Evans blue intravenous infusion 30 min later and then intracardially perfused using 100 ml normal saline at 30 min following infusion. Brains were harvested and the Evans blue content was measured spectrophotometrically.

[1] = tested on: animal model of ischemic stroke; conditions: given 6 hours after reperfusion; cited from earlier work

SMILES | Evans blue content in brain / blood brain barrier permeability, in words (blood brain barrier) | Protection in ischemic stroke, in words [1]
OC[C@@H](O)[C@@H](O)[C@H](O)[C@H](O)CO [Mannitol, reference compound] | significant increase of Evans blue content; also recorded: did increase the blood brain barrier (BBB) permeability | –
CC[n+]1ccccc1-c1c2nc(c(-c3cccc[n+]3CC)c3ccc([n-]3)c(-c3cccc[n+]3CC)c3nc(c(-c4cccc[n+]4CC)c4ccc1[n-]4)C=C3)C=C2.[Mn+3] [MnTE-2-PyP^5+] | – | provided protection
